Laboratory results as given in ChEMBL document CHEMBL4024791, “Identification of Morpholino-2H-pyrido[3,2-b][1,4]oxazin-3(4H)-ones as Nonsteroidal Mineralocorticoid Antagonists” (J Med Chem, 2018).
pIC50: −log10 of the molar value.

How the values were obtained:
[1] = molecular target: T1, Glucocorticoid receptor (Homo sapiens, UniProt P04150); assay: Antagonist activity at GR (unknown origin) by Gal4-based cellular assay
T1 sequence (P04150 whole entry): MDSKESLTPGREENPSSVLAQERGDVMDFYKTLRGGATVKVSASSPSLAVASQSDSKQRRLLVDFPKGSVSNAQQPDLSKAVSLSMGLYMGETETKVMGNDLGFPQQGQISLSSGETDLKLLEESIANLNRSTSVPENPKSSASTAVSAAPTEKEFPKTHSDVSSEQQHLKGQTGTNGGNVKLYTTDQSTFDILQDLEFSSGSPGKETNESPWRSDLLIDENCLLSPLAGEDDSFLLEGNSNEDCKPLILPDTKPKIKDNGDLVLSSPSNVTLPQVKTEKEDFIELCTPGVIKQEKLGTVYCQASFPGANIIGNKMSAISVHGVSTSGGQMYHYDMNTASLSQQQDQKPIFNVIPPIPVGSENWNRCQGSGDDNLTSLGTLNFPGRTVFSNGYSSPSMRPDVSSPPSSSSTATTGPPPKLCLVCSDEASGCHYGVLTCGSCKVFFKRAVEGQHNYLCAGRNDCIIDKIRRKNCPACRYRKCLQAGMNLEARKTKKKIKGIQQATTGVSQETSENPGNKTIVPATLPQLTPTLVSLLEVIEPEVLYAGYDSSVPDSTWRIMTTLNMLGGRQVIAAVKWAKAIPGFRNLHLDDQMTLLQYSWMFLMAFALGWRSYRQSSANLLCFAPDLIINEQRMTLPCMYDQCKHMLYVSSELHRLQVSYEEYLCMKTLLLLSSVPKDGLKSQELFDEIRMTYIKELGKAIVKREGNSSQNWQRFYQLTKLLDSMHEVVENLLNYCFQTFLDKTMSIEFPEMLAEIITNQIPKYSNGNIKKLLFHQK

[2] = molecular target: T2, CYP1A2 (Homo sapiens, UniProt P05177); assay: Inhibition of CYP1A2 (unknown origin) at 3 uM; type: ADME
T2 sequence (P05177 whole entry): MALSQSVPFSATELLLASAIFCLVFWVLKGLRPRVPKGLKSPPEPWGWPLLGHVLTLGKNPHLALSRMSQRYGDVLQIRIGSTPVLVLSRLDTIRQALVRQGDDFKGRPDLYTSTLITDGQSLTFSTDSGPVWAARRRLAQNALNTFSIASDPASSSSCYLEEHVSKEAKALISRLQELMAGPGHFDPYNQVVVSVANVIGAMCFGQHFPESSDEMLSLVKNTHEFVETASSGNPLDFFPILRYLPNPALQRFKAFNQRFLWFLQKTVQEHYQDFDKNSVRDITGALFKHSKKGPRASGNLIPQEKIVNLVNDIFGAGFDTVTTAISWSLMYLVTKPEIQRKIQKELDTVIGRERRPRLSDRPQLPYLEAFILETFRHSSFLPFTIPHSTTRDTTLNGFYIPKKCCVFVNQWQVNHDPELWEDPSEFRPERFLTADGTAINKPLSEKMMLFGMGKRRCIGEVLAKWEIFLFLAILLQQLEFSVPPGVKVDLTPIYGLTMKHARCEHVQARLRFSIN

[3] = molecular target: CYP2C9 (Homo sapiens, UniProt P11712); assay: Inhibition of CYP2C9 (unknown origin) at 3 uM; type: ADME
Sequence of CYP2C9 (P11712 whole entry, the tested form may be a part): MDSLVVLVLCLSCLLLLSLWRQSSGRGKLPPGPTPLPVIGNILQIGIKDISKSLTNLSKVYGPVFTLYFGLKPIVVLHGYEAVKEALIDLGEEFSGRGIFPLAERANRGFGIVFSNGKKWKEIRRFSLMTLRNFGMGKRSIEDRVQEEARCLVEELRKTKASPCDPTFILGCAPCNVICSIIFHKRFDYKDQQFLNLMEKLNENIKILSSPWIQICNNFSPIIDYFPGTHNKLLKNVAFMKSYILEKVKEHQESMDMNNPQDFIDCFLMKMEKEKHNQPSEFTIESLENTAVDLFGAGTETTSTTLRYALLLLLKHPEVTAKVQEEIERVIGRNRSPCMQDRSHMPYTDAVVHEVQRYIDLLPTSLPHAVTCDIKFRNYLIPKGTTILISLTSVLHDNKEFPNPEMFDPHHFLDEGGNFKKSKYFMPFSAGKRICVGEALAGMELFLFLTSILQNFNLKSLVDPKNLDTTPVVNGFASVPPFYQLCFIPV

[4] = molecular target: T3, Androgen receptor (Homo sapiens, UniProt P10275); assay: Antagonist activity at human GAL4-DBD fused AR ligand binding domain transfected in human Huh7 cells co-expressing GAL4-RE-Luc assessed as reduction in dihydrotestosterone-induced luciferase activity after 16 hrs by luciferase reporter gene assay; type: cell-based
T3 sequence (P10275 whole entry): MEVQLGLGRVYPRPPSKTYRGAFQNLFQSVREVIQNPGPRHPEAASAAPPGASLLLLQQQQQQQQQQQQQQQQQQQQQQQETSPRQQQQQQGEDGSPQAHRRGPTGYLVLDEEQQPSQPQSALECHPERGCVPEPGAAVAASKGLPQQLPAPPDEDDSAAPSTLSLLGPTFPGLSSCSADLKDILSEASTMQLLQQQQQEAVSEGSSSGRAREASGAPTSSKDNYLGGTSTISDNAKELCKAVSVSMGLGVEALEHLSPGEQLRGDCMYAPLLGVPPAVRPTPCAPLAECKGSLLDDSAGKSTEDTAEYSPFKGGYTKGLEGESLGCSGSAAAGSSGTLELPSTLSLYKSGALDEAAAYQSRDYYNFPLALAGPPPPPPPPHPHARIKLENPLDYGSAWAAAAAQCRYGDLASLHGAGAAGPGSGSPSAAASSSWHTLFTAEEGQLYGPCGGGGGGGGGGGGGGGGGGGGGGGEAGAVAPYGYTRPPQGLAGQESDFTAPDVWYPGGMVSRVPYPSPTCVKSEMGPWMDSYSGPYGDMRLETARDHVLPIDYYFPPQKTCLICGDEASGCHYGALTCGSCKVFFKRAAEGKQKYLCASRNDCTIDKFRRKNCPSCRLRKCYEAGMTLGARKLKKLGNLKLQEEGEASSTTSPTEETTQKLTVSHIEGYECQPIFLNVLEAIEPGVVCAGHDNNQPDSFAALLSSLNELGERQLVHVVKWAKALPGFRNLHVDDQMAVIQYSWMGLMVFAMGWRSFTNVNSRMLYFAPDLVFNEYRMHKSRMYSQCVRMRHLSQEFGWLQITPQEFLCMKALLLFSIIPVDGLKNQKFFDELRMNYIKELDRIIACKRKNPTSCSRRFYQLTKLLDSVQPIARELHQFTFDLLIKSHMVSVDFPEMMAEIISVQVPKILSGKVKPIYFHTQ

| pIC50 [1] | inhibition at 3 µM [2] [%] | inhibition at 3 µM [3] [%] | pIC50 [4] | Compound |
| --- | --- | --- | --- | --- |
| < 5.00 | < 20 | < 20 | < 5.00 | C[C@@H]1CN(c2ccc3c(n2)NC(=O)CO3)[C@H](c2ccccc2)CO1 |
| < 5.00 | < 10 | < 10 | < 5.00 | O=C1COc2ccc(N3CCOC[C@H]3c3ccccc3)cc2N1 |
